Values of other authors as cited in patent publication US20050158747A1, “CFTR modifier genes and expressed polypeptides useful in treating cystic fibrosis and methods and products for detecting and/or identifying same” (priority 2003, published 2005).

Key:
[1] = system: purinergic receptors in the airway epithelium; settings: in vitro studies
sodium (Na^+) channels = settings: aerosolized; initial results

Structure (SMILES)	chloride (Cl^−) secretion [1]	rate of disease progression, as measured by lung function tests (sodium (Na^+) channels)	safety in trials (sodium (Na^+) channels)
Nc1ncnc2c1ncn2[C@@H]1O[C@H](COP(=O)(O)OP(=O)(O)OP(=O)(O)O)[C@@H](O)[C@H]1O [ATP]	can stimulate chloride (Cl^−) secretion	–	–
O=c1ccn([C@@H]2O[C@H](COP(=O)(O)OP(=O)(O)OP(=O)(O)O)[C@@H](O)[C@H]2O)c(=O)[nH]1 [UTP]	can stimulate chloride (Cl^−) secretion	–	–
N=C(N)NC(=O)c1nc(Cl)c(N)nc1N [amiloride]	–	slight change in the rate of disease progression	safe
